Measured values: patent US9499550B2 (BRISTOL-MYERS SQUIBB COMPANY, priority 2012, dated 2016)
pEC50: −log10 of the molar value.

Columns and labels:
[1] = tested on: HCV genotype 1a (H77 strain) replicon in HUH-7 cells; test: HCV replicon luciferase reporter assay, genotype 1a; assay type: cell-based; details: Hepatitis C virus, Huh-7, 72 h, HCV genotype 1a replicon luciferase assay, 3 days incubation, range class, read-out: LE_1a (EC50, range)
In short: (§1)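 Replicon inhibition for both genotypes was measured as Renilla luciferase signal (EnduRen, 7.5 μM final, 2 h) after 3-day, 37° C exposure of replicon-bearing HUH-7 cells in 4% FCS DMEM, 0.5% DMSO. The 1b construct carries S1179I; the 1a H77 construct carries P1496L and S2204I. Twenty-point, 3-fold dilutions were fitted four-parametrically for EC50, and CC50 was taken from multiplexed Cell Titer-Blue.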

[2] = tested on: HCV genotype 1b (Con1) replicon in HUH-7 cells; test: HCV replicon luciferase reporter assay, genotype 1b; assay type: cell-based; details: Hepatitis C virus, Huh-7, 72 h, HCV genotype 1b replicon luciferase assay, 3 days incubation, range class, read-out: LE_1b (EC50, range)
In short: as §1

## COc1ccc2c(O[C@@H]3C[C@H]4C(=O)N[C@]5(C(=O)NS(=O)(=O)C6CC6)C[C@H]5/C=C\CC[C@H](C)C[C@@H](C)[C@H](NC(=O)OC(C)(C)C)C(=O)N4C3)nccc2c1F [Compound 3147, tert-butyl ((2R,6S,7R,9S,13aS,14aR,16aS,Z)-14a-((cyclopropylsulfonyl)carbamoyl)-2-((5-fluoro-6-methoxyisoquinolin-1-yl)oxy)-7,9-dimethyl-5,16-dioxo-1,2,3,5,6,7,8,9,10,11,13a,14,14a,15,16,16a-hexadecahydrocyclopropa[e]pyrrolo[1,2-a][1,4]diazacyclopentadecin-6-yl)carbamate]
[1]
  pEC50: 6.99 to 8.32
[2]
  pEC50: > 8.26

## COc1ccc2c(O[C@@H]3C[C@H]4C(=O)N[C@]5(C(=O)NS(=O)(=O)C6CC6)C[C@H]5/C=C\CC[C@@H](C)C[C@@H](C)[C@H](NC(=O)OC(C)(C)C)C(=O)N4C3)nccc2c1F [Compound 3148, tert-butyl ((2R,6S,7R,9R,13aS,14aR,16aS,Z)-14a-((cyclopropylsulfonyl)carbamoyl)-2-((5-fluoro-6-methoxyisoquinolin-1-yl)oxy)-7,9-dimethyl-5,16-dioxo-1,2,3,5,6,7,8,9,10,11,13a,14,14a,15,16,16a-hexadecahydrocyclopropa[e]pyrrolo[1,2-a][1,4]diazacyclopentadecin-6-yl)carbamate]
[1]
  pEC50: > 8.26
[2]
  pEC50: > 8.26

## COc1ccc2c(O[C@@H]3C[C@H]4C(=O)N[C@]5(C(=O)NS(=O)(=O)C6CC6)C[C@H]5/C=C\CC[C@H](C)C[C@@H](C)[C@H](NC(=O)OC(C)(C)C(F)(F)F)C(=O)N4C3)nccc2c1F [Compound 3149, 1,1,1-trifluoro-2-methylpropan-2-yl((2R,6S,7R,9S,13aS,14aR,16aS,Z)-14a-((cyclopropylsulfonyl)carbamoyl)-2-((5-fluoro-6-methoxyisoquinolin-1-yl)oxy)-7,9-dimethyl-5,16-dioxo-1,2,3,5,6,7,8,9,10,11,13a,14,14a,15,16,16a-hexadecahydrocyclopropa[e]pyrrolo[1,2-a][1,4]diazacyclopentadecin-6-yl)carbamate]
[1]
  pEC50: 6.99 to 8.32
[2]
  pEC50: > 8.26

## COc1ccc2c(O[C@@H]3C[C@H]4C(=O)N[C@]5(C(=O)NS(=O)(=O)C6CC6)C[C@H]5/C=C\CC[C@@H](C)C[C@@H](C)[C@H](NC(=O)OC(C)(C)C(F)(F)F)C(=O)N4C3)nccc2c1F [Compound 3150, 1,1,1-trifluoro-2-methylpropan-2-yl((2R,6S,7R,9R,13aS,14aR,16aS,Z)-14a-((cyclopropylsulfonyl)carbamoyl)-2-((5-fluoro-6-methoxyisoquinolin-1-yl)oxy)-7,9-dimethyl-5,16-dioxo-1,2,3,5,6,7,8,9,10,11,13a,14,14a,15,16,16a-hexadecahydrocyclopropa[e]pyrrolo[1,2-a][1,4]diazacyclopentadecin-6-yl)carbamate]
[1]
  pEC50: > 8.26
[2]
  pEC50: > 8.26

## COc1ccc2c(O[C@@H]3C[C@H]4C(=O)N[C@]5(C(=O)NS(=O)(=O)C6CC6)C[C@H]5/C=C\CC[C@H](C)C[C@@H](C)[C@H](NC(=O)O[C@@H]5C[C@@H]6C[C@@H]6C5)C(=O)N4C3)nccc2c1F [Compound 3151, (1R,3r,5S)-bicyclo[3.1.0]hexan-3-yl((2R,6S,7R,9S,13aS,14aR,16aS,Z)-14a-((cyclopropylsulfonyl)carbamoyl)-2-((5-fluoro-6-methoxyisoquinolin-1-yl)oxy)-7,9-dimethyl-5,16-dioxo-1,2,3,5,6,7,8,9,10,11,13a,14,14a,15,16,16a-hexadecahydrocyclopropa[e]pyrrolo[1,2-a][1,4]diazacyclopentadecin-6-yl)carbamate]
[1]
  pEC50: 6.99 to 8.32
[2]
  pEC50: > 8.26

## COc1ccc2c(O[C@@H]3C[C@H]4C(=O)N[C@]5(C(=O)NS(=O)(=O)C6CC6)C[C@H]5/C=C\CC[C@@H](C)C[C@@H](C)[C@H](NC(=O)O[C@@H]5C[C@@H]6C[C@@H]6C5)C(=O)N4C3)nccc2c1F [Compound 3152, (1R,3r,5S)-bicyclo[3.1.0]hexan-3-yl((2R,6S,7R,9R,13aS,14aR,16aS,Z)-14a-((cyclopropylsulfonyl)carbamoyl)-2-((5-fluoro-6-methoxyisoquinolin-1-yl)oxy)-7,9-dimethyl-5,16-dioxo-1,2,3,5,6,7,8,9,10,11,13a,14,14a,15,16,16a-hexadecahydrocyclopropa[e]pyrrolo[1,2-a][1,4]diazacyclopentadecin-6-yl)carbamate]
[1]
  pEC50: > 8.26
[2]
  pEC50: > 8.26

## COc1cc(F)cc2c(O[C@@H]3C[C@H]4C(=O)N[C@]5(C(=O)NS(=O)(=O)C6(C)CC6)C[C@H]5/C=C\CC[C@H](C)C[C@@H](C)[C@H](NC(=O)OC(C)(C)C)C(=O)N4C3)nccc12 [Compound 3153, tert-butyl ((2R,6S,7R,9S,13aS,14aR,16aS,Z)-2-((7-fluoro-5-methoxyisoquinolin-1-yl)oxy)-7,9-dimethyl-14a-(((1-methylcyclopropyl)sulfonyl)carbamoyl)-5,16-dioxo-1,2,3,5,6,7,8,9,10,11,13a,14,14a,15,16,16a-hexadecahydrocyclopropa[e]pyrrolo[1,2-a][1,4]diazacyclopentadecin-6-yl)carbamate]
[1]
  pEC50: 6.99 to 8.32
[2]
  pEC50: 6.99 to 8.32

## COc1cc(F)cc2c(O[C@@H]3C[C@H]4C(=O)N[C@]5(C(=O)NS(=O)(=O)C6(C)CC6)C[C@H]5/C=C\CC[C@@H](C)C[C@@H](C)[C@H](NC(=O)OC(C)(C)C)C(=O)N4C3)nccc12 [Compound 3154, tert-butyl ((2R,6S,7R,9R,13aS,14aR,16aS,Z)-2-((7-fluoro-5-methoxyisoquinolin-1-yl)oxy)-7,9-dimethyl-14a-(((1-methylcyclopropyl)sulfonyl)carbamoyl)-5,16-dioxo-1,2,3,5,6,7,8,9,10,11,13a,14,14a,15,16,16a-hexadecahydrocyclopropa[e]pyrrolo[1,2-a][1,4]diazacyclopentadecin-6-yl)carbamate]
[1]
  pEC50: > 8.26
[2]
  pEC50: > 8.26

## COc1cc(F)cc2c(O[C@@H]3C[C@H]4C(=O)N[C@]5(C(=O)NS(=O)(=O)C6(C)CC6)C[C@H]5/C=C\CC[C@H](C)C[C@@H](C)[C@H](NC(=O)OC(C)(C)C(F)(F)F)C(=O)N4C3)nccc12 [Compound 3155, 1,1,1-trifluoro-2-methylpropan-2-yl((2R,6S,7R,9S,13aS,14aR,16aS,Z)-2-((7-fluoro-5-methoxyisoquinolin-1-yl)oxy)-7,9-dimethyl-14a-(((1-methylcyclopropyl)sulfonyl)carbamoyl)-5,16-dioxo-1,2,3,5,6,7,8,9,10,11,13a,14,14a,15,16,16a-hexadecahydrocyclopropa[e]pyrrolo[1,2-a][1,4]diazacyclopentadecin-6-yl)carbamate]
[1]
  pEC50: 6.99 to 8.32
[2]
  pEC50: 6.99 to 8.32

## COc1cc(F)cc2c(O[C@@H]3C[C@H]4C(=O)N[C@]5(C(=O)NS(=O)(=O)C6(C)CC6)C[C@H]5/C=C\CC[C@@H](C)C[C@@H](C)[C@H](NC(=O)OC(C)(C)C(F)(F)F)C(=O)N4C3)nccc12 [Compound 3156, 1,1,1-trifluoro-2-methylpropan-2-yl((2R,6S,7R,9R,13aS,14aR,16aS,Z)-2-((7-fluoro-5-methoxyisoquinolin-1-yl)oxy)-7,9-dimethyl-14a-(((1-methylcyclopropyl)sulfonyl)carbamoyl)-5,16-dioxo-1,2,3,5,6,7,8,9,10,11,13a,14,14a,15,16,16a-hexadecahydrocyclopropa[e]pyrrolo[1,2-a][1,4]diazacyclopentadecin-6-yl)carbamate]
[1]
  pEC50: > 8.26
[2]
  pEC50: > 8.26

## COc1cc(F)cc2c(O[C@@H]3C[C@H]4C(=O)N[C@]5(C(=O)NS(=O)(=O)C6(C)CC6)C[C@H]5/C=C\CC[C@H](C)C[C@@H](C)[C@H](NC(=O)O[C@H](C)C(F)(F)F)C(=O)N4C3)nccc12 [Compound 3157, (R)-1,1,1-trifluoropropan-2-yl ((2R,6S,7R,9S,13aS,14aR,16aS,Z)-2-((7-fluoro-5-methoxyisoquinolin-1-yl)oxy)-7,9-dimethyl-14a-(((1-methylcyclopropyl)sulfonyl)carbamoyl)-5,16-dioxo-1,2,3,5,6,7,8,9,10,11,13a,14,14a,15,16,16a-hexadecahydrocyclopropa[e]pyrrolo[1,2-a][1,4]diazacyclopentadecin-6-yl)carbamate]
[1]
  pEC50: 6.99 to 8.32
[2]
  pEC50: > 8.26

## COc1cc(F)cc2c(O[C@@H]3C[C@H]4C(=O)N[C@]5(C(=O)NS(=O)(=O)C6(C)CC6)C[C@H]5/C=C\CC[C@@H](C)C[C@@H](C)[C@H](NC(=O)O[C@H](C)C(F)(F)F)C(=O)N4C3)nccc12 [Compound 3158, (R)-1,1,1-trifluoropropan-2-yl ((2R,6S,7R,9R,13aS,14aR,16aS,Z)-2-((7-fluoro-5-methoxyisoquinolin-1-yl)oxy)-7,9-dimethyl-14a-(((1-methylcyclopropyl)sulfonyl)carbamoyl)-5,16-dioxo-1,2,3,5,6,7,8,9,10,11,13a,14,14a,15,16,16a-hexadecahydrocyclopropa[e]pyrrolo[1,2-a][1,4]diazacyclopentadecin-6-yl)carbamate]
[1]
  pEC50: > 8.26
[2]
  pEC50: > 8.26

## COc1cc(F)cc2c(O[C@@H]3C[C@H]4C(=O)N[C@]5(C(=O)NS(=O)(=O)C6(C)CC6)C[C@H]5/C=C\CC[C@H](C)C[C@@H](C)[C@H](NC(=O)O[C@@H]5C[C@@H]6C[C@@H]6C5)C(=O)N4C3)nccc12 [Compound 3159, (1R,3r,5S)-bicyclo[3.1.0]hexan-3-yl((2R,6S,7R,9S,13aS,14aR,16aS,Z)-2-((7-fluoro-5-methoxyisoquinolin-1-yl)oxy)-7,9-dimethyl-14a-(((1-methylcyclopropyl)sulfonyl)carbamoyl)-5,16-dioxo-1,2,3,5,6,7,8,9,10,11,13a,14,14a,15,16,16a-hexadecahydrocyclopropa[e]pyrrolo[1,2-a][1,4]diazacyclopentadecin-6-yl)carbamate]
[1]
  pEC50: 6.99 to 8.32
[2]
  pEC50: > 8.26
